Source: patent publication US20050208496A1, “Methods of testing for bronchial asthma or chronic obstructive pulmonary disease” (Genox Research, Inc., priority 2002, published 2005)

Tested on: respiratory epithelial cells

IL-13: human IL-13 (Peprotech, Inc.) added to the medium at 50 ng/mL to stimulate respiratory epithelial cells
TGM2 (38404_at) expression fold change upon IL-13 stimulation (lot 1, Day 7, AI method): 2.8 fold
TSPAN-3 (38612_at) expression, fold change upon IL-13 stimulation (lot 1, Day 7, AI method): 2.7 fold
TXNRD1 (39425_at) expression fold change upon IL-13 stimulation (lot 1, Day 7, AI method): 2.5 fold
UBE2L6 (40505_at) expression fold change upon IL-13 stimulation (lot 1, Day 7, AI method): 5.1 fold
UFD1L (811_at) expression, fold change upon IL-13 stimulation (lot 1, Day 7, AI method): 5.1 fold
W06879 (57696_at) expression fold change (lot 1, Day 7, AI method): 2.1 fold
ZNF263 (33288_i_at) expression fold change (lot 1, Day 7, AI method): 2.6 fold
diubiquitin (39959_at) expression, fold change upon IL-13 stimulation (lot 1, Day 7, AI method): 4.3 fold
AA053401 (56234_r_at) expression change (lot 1, Day 7, IMM): −5.7
AA059458 (65626_at) expression change (lot 1, Day 7, IMM): −3.1
AA456099 (59567_at) expression change (lot 1, Day 7, IMM): −2.3
AF052107 38262_at expression change (lot 1, Day 7, IMM): −4.5
AI050855 (64285_at) expression change (lot 1, Day 7, IMM): −3.7
AI432375 (49819_at) expression change (lot 1, Day 7, IMM): −6.3
AI770116 (70124_at) expression change (lot 1, Day 7, IMM): −2.1
AI798733 (64163_at) expression change (lot 1, Day 7, IMM): −2.3
AI829641 (84270_at) expression change (lot 1, Day 7, IMM): 11.7
AI948584 48086_at expression change (lot 1, Day 7, IMM): −6.2
AQP5 32909_at expression change (lot 1, Day 7, IMM): −2.5
ARHGEF4 36524_at expression change (lot 1, Day 7, IMM): −2.2
BARX2 35425_at expression change (lot 1, Day 7, IMM): −2.7
CBLB 514_at expression change (lot 1, Day 7, IMM): −2.4
CBLB 35632_at expression change (lot 1, Day 7, IMM): −2
CRABP-II 1057_at expression change (lot 1, Day 7, IMM): −2.7
DKFZp434K1210 44682_at expression change (lot 1, Day 7, IMM): −2.1
DSC3 (79615_at) expression change (lot 1, Day 7, IMM): −4
DSC3a, b 47119_at expression change (lot 1, Day 7, IMM): −3.4
DSC3a, b 79615_at expression change (lot 1, Day 7, IMM): −4
EIF4EBP1 (54152_at) expression change (lot 1, Day 7, IMM): −7.3
FLJ10718 52072_at expression change (lot 1, Day 7, IMM): −8
FLJ20373 54030_at expression change (lot 1, Day 7, IMM): −2.1
FLJ23516 47534_at expression change (lot 1, Day 7, IMM): −5.4
GJA1 32531_at expression change (lot 1, Day 7, IMM): −5.5
HEY1 44783_s_at expression change (lot 1, Day 7, IMM): −3.4
HIN-1 (46200_at) expression change (lot 1, Day 7, IMM): −4
ID1 36619_r_at expression change (lot 1, Day 7, IMM): −3.9
IL20RA 42969_at expression change (lot 1, Day 7, IMM): −2.9
IVL 36355_at expression change (lot 1, Day 7, IMM): −4.5
K1IAA1102 (64345_s_at) expression change (lot 1, Day 7, IMM): −5.6
KCNMA1 (53796_at) expression change (lot 1, Day 7, IMM): −3
KIAA0878 (48793_at) expression change (lot 1, Day 7, IMM): −2.4
KLF7 34216_at expression change (lot 1, Day 7, IMM): −6.3
KLF7 (42769_at) expression change (lot 1, Day 7, IMM): −3.7
KRT6B (62998_at) expression change (lot 1, Day 7, IMM): −2.5
KRT15 37582_at expression change (lot 1, Day 7, IMM): −2
LOC51297 (49616_at) expression change (lot 1, Day 7, IMM): −3.9
LOC51297 (55440_at) expression change (lot 1, Day 7, IMM): −3.7
LOC51297 (55442_g_at) expression change (lot 1, Day 7, IMM): −12.8
LOC129642 (42065_at) expression change (lot 1, Day 7, IMM): −4.3
LOC129642 (58288_at) expression change (lot 1, Day 7, IMM): −3.9
MGC14128 55924_at expression change (lot 1, Day 7, IMM): −2.7
MGC14128 (51669_r_at) expression change (lot 1, Day 7, IMM): −2.1
MGC16207 (65876_at) expression change (lot 1, Day 7, IMM): −2.3
N71183 52473_at expression change (lot 1, Day 7, IMM): −2.1
PR01489 57777_at expression change (lot 1, Day 7, IMM): −10.9
RAC2 32737_at expression change (lot 1, Day 7, IMM): −3.2
SEMA4B (46709_at) expression change (lot 1, Day 7, IMM): −2.2
SERPINA3 (75248_at) expression change (lot 1, Day 7, IMM): −16.3
SPRR1B 37160_at expression change (lot 1, Day 7, IMM): −2.4
T52027 (63150_at) expression change (lot 1, Day 7, IMM): 2.5
TCF8 33439_at expression change (lot 1, Day 7, IMM): −2.4
TGFBI (68339_at) expression change (lot 1, Day 7, IMM): −3.2
TNNT1 36113_s_at expression change (lot 1, Day 7, IMM): −4.9
TNRC3 41246_at expression change (lot 1, Day 7, IMM): −2.4
TPM1 36790_at expression change (lot 1, Day 7, IMM): −5.5
TPM1 36791_g_at expression change (lot 1, Day 7, IMM): −7.5
TPM1 36792_at expression change (lot 1, Day 7, IMM): −5.7
UGB 39220_at expression change (lot 1, Day 7, IMM): −8.2
VIM 34091_s_at expression change (lot 1, Day 7, IMM): −6.6
W55956 46700_at expression change (lot 1, Day 7, IMM): −2.4
W72331 49486 at expression change (lot 1, Day 7, IMM): −4.8
ADAM8 (40712_at) expression, fold change upon IL-13 stimulation (lot 1, Day 7, IMM method): 2.8 fold
ADAM28 (35479_at) expression, fold change upon IL-13 stimulation (lot 1, Day 7, IMM method): 6.4 fold
AI659927 (54033_at) expression fold change (lot 1, Day 7, IMM method): 11 fold
AI718385 (53061_at) expression fold change (lot 1, Day 7, IMM method): 3.2 fold
AI809925 (53010_at) expression fold change (lot 1, Day 7, IMM method): 2.8 fold
AI989346 (52327_s_at) expression fold change (lot 1, Day 7, IMM method): 2.1 fold
AKAP2 (35985_at) expression, fold change upon IL-13 stimulation (lot 1, Day 7, IMM method): 2.2 fold
ALOX15 (34636_at) expression, fold change upon IL-13 stimulation (lot 1, Day 7, IMM method): 118.8 fold
AW019985 (48826_s_at) expression fold change (lot 1, Day 7, IMM method): 10.8 fold
BRCA1 (626_s_at) expression fold change (lot 1, Day 7, IMM method): 2.4 fold
BST2 (39061_at) expression, fold change upon IL-13 stimulation (lot 1, Day 7, IMM method): 5.4 fold
C21orf11 (58957_at) expression fold change (lot 1, Day 7, IMM method): 6 fold
CCND3 (1794_at) expression fold change upon IL-13 stimulation (lot 1, Day 7, IMM method): 2.3 fold
CDH6 (1620_at) expression fold change upon IL-13 stimulation (lot 1, Day 7, IMM method): 4.2 fold
CDH6 (57421_at) expression fold change (lot 1, Day 7, IMM method): 4.5 fold
CDH26 (46916_at) expression fold change (lot 1, Day 7, IMM method): 9.3 fold
CH25H (32363_at) expression, fold change upon IL-13 stimulation (lot 1, Day 7, IMM method): 11.4 fold
CLDN4 (35276_at) expression, fold change upon IL-13 stimulation (lot 1, Day 7, IMM method): 2.1 fold
CLDN5 (38995_at) expression, fold change upon IL-13 stimulation (lot 1, Day 7, IMM method): 3.9 fold
CTSC (133_at) expression, fold change upon IL-13 stimulation (lot 1, Day 7, IMM method): 5.6 fold
CXCL16 (44095_at) expression fold change (lot 1, Day 7, IMM method): 2.6 fold
DD96 (31610_at) expression, fold change upon IL-13 stimulation (lot 1, Day 7, IMM method): 9.5 fold
DKFZP564O0823 (41402_at) expression, fold change upon IL-13 stimulation (lot 1, Day 7, IMM method): 9.6 fold
DKFZP566J091 (57197_at) expression fold change (lot 1, Day 7, IMM method): 4.2 fold
DKFZp564N1116 (37784_at) expression, fold change upon IL-13 stimulation (lot 1, Day 7, IMM method): 6 fold
DPP4 (34823_at) expression fold change upon IL-13 stimulation (lot 1, Day 7, IMM method): 3.9 fold
DPYD (38220_at) expression fold change upon IL-13 stimulation (lot 1, Day 7, IMM method): 6.9 fold
EMILIN-2 (51628_at) expression fold change (lot 1, Day 7, IMM method): 5 fold
FETUB (32620_at) expression fold change (lot 1, Day 7, IMM method): 7.4 fold
FETUB (33101_g_at) expression fold change (lot 1, Day 7, IMM method): 7.7 fold
FLJ10261 (43366_at) expression fold change (lot 1, Day 7, IMM method): 8.4 fold
FLJ22693 (53777_at) expression fold change (lot 1, Day 7, IMM method): 2.2 fold
GADD45G (39154_at) expression fold change upon IL-13 stimulation (lot 1, Day 7, IMM method): 3.1 fold
HAS3 (54604_at) expression fold change (lot 1, Day 7, IMM method): 2.2 fold
HLA-F (37420_i_at) expression, fold change upon IL-13 stimulation (lot 1, Day 7, IMM method): 2.4 fold
